Experimental data: the NIST ThermoML archive (doi:10.1016/j.jct.2018.12.022)
± gives the expanded uncertainty stated by the source.

Tests used:
[1] = mn = molality of the nth substance listed, in mol/kg; settings: 85 kPa, Liquid; for viscosity: Falling or rolling sphere viscometry; for speed of sound: Frequency=3 MHz, Single path-length method; for mass density: Vibrating tube method
[2] = refractive index (Na D-line) (dimensionless); mn = molality of the nth substance listed, in mol/kg; settings: 85 kPa, Liquid, Standard Abbe refractometry

C[C@H](N)C(=O)[O-].C[N+](C)(C)CCO [2-hydroxy-N,N,N-trimethylethanaminium L-alaninate] + O
Settings | mass density, [1] [kg/m3] | refractive index, [2] | speed of sound, [1] [m/s] | viscosity, [1] [mPa·s]
288.15 K, m1 = 0.0108 | 999.398 ± 0.32 | 1.3338 ± 0.0005 | 1468 ± 1.2 | 1.143 ± 0.015
288.15 K, m1 = 0.0204 | 999.663 ± 0.32 | 1.334 ± 0.0005 | 1469.3 ± 1.2 | 1.147 ± 0.015
288.15 K, m1 = 0.03 | 999.914 ± 0.32 | 1.3342 ± 0.0005 | 1470.7 ± 1.2 | 1.151 ± 0.015
288.15 K, m1 = 0.0401 | 1000.17 ± 0.32 | 1.3345 ± 0.0005 | 1472.1 ± 1.2 | 1.155 ± 0.015
288.15 K, m1 = 0.0509 | 1000.44 ± 0.32 | 1.3349 ± 0.0005 | 1473.6 ± 1.2 | 1.16 ± 0.015
288.15 K, m1 = 0.0583 | 1000.62 ± 0.32 | 1.3351 ± 0.0005 | 1474.6 ± 1.2 | 1.163 ± 0.015
298.15 K, m1 = 0.0108 | 997.345 ± 0.39 | 1.3331 ± 0.0005 | 1498.4 ± 1.9 | 0.897 ± 0.017
298.15 K, m1 = 0.0204 | 997.608 ± 0.32 | 1.3333 ± 0.0005 | 1499.7 ± 1.2 | 0.9 ± 0.014
298.15 K, m1 = 0.03 | 997.858 ± 0.32 | 1.3335 ± 0.0005 | 1501 ± 1.2 | 0.903 ± 0.014
298.15 K, m1 = 0.0401 | 998.115 ± 0.32 | 1.3337 ± 0.0005 | 1502.4 ± 1.2 | 0.906 ± 0.014
298.15 K, m1 = 0.0509 | 998.382 ± 0.31 | 1.3341 ± 0.0005 | 1503.9 ± 1.1 | 0.91 ± 0.014
298.15 K, m1 = 0.0583 | 998.553 ± 0.31 | 1.3343 ± 0.0005 | 1504.9 ± 1.3 | 0.912 ± 0.021
308.15 K, m1 = 0.0108 | 994.326 ± 0.38 | 1.3319 ± 0.0005 | 1521.6 ± 1.9 | 0.732 ± 0.014
308.15 K, m1 = 0.0204 | 994.588 ± 0.32 | 1.3321 ± 0.0005 | 1522.9 ± 1.2 | 0.735 ± 0.013
308.15 K, m1 = 0.03 | 994.839 ± 0.32 | 1.3323 ± 0.0005 | 1524.2 ± 1.2 | 0.737 ± 0.013
308.15 K, m1 = 0.0401 | 995.097 ± 0.32 | 1.3326 ± 0.0005 | 1525.6 ± 1.2 | 0.74 ± 0.013
308.15 K, m1 = 0.0509 | 995.362 ± 0.32 | 1.333 ± 0.0005 | 1527 ± 1.1 | 0.743 ± 0.013
308.15 K, m1 = 0.0583 | 995.534 ± 0.31 | 1.3333 ± 0.0005 | 1528 ± 1.3 | 0.745 ± 0.015
318.15 K, m1 = 0.0108 | 990.514 ± 0.32 | 1.3304 ± 0.0005 | 1537.5 ± 1.1 | 0.604 ± 0.013
318.15 K, m1 = 0.0204 | 990.779 ± 0.32 | 1.3306 ± 0.0005 | 1538.8 ± 1.1 | 0.607 ± 0.013
318.15 K, m1 = 0.03 | 991.029 ± 0.32 | 1.3309 ± 0.0005 | 1540 ± 1.1 | 0.609 ± 0.013
318.15 K, m1 = 0.0401 | 991.289 ± 0.32 | 1.3312 ± 0.0005 | 1541.3 ± 1.1 | 0.611 ± 0.013
318.15 K, m1 = 0.0509 | 991.561 ± 0.32 | 1.3315 ± 0.0005 | 1542.8 ± 1.1 | 0.613 ± 0.013
318.15 K, m1 = 0.0583 | 991.728 ± 0.32 | 1.3318 ± 0.0005 | 1543.7 ± 1.1 | 0.615 ± 0.013
